Laboratory results from patent US5750135A, “Stabilized feed additive and process for the preparation thereof” (Boehringer Ingelheim Vetmedica GmbH, priority 1987, dated 1998).

Test: Recovery rate of zinc bacitracin in various feeds on storage at ambient temperature
Type: physicochemical
Conditions: initial 1,000 ppm = 100%
Source text: Stabilization of the active substance zinc bacitracin is achieved with the process according to the invention.

Recovery rate of zinc bacitracin (ZBA) in % (meal feed 2.16 mineral supplement, 1.5 weeks): 94.6%
Recovery rate of zinc bacitracin (ZBA) in % (meal feed 2.16 mineral supplement, 4 weeks): 91.2%
Recovery rate of zinc bacitracin (ZBA) in % (meal feed 2.16 mineral supplement, 6 weeks): 68.5%
Recovery rate of zinc bacitracin (ZBA) in % (meal feed 2.16 mineral supplement, 8 weeks): 73.7%
Recovery rate of zinc bacitracin (ZBA) in % (meal feed 2.6 complete feed for fattening pigs, 1.5 weeks): 116.4%
Recovery rate of zinc bacitracin (ZBA) in % (meal feed 2.6 complete feed for fattening pigs, 4 weeks): 107.6%
Recovery rate of zinc bacitracin (ZBA) in % (meal feed 2.6 complete feed for fattening pigs, 6 weeks): 93.1%
Recovery rate of zinc bacitracin (ZBA) in % (meal feed 2.6 complete feed for fattening pigs, 8 weeks): 83.3%
Recovery rate of zinc bacitracin (ZBA) in % (meal feed 7.4 complete feed for fattening chicks, 1.5 weeks): 89.8%
Recovery rate of zinc bacitracin (ZBA) in % (meal feed 7.4 complete feed for fattening chicks, 4 weeks): 82.9%
Recovery rate of zinc bacitracin (ZBA) in % (meal feed 7.4 complete feed for fattening chicks, 6 weeks): 66.2%
Recovery rate of zinc bacitracin (ZBA) in % (meal feed 7.4 complete feed for fattening chicks, 8 weeks): 51.9%
Recovery rate of zinc bacitracin (ZBA) in % (meal feed 7.7 complete feed for laying hens, 1.5 weeks): 96.5%
Recovery rate of zinc bacitracin (ZBA) in % (meal feed 7.7 complete feed for laying hens, 4 weeks): 98.8%
Recovery rate of zinc bacitracin (ZBA) in % (meal feed 7.7 complete feed for laying hens, 6 weeks): 86.4%
Recovery rate of zinc bacitracin (ZBA) in % (meal feed 7.7 complete feed for laying hens, 8 weeks): 80.4%
Recovery rate of zinc bacitracin (ZBA) in % (pellet feed 2.6 complete feed for fattening pigs, 1.5 weeks): 90.5%
Recovery rate of zinc bacitracin (ZBA) in % (pellet feed 2.6 complete feed for fattening pigs, 4 weeks): 75.7%
Recovery rate of zinc bacitracin (ZBA) in % (pellet feed 2.6 complete feed for fattening pigs, 6 weeks): 48.8%
Recovery rate of zinc bacitracin (ZBA) in % (pellet feed 2.6 complete feed for fattening pigs, 8 weeks): 40.8%
Recovery rate of zinc bacitracin (ZBA) in % (pellet feed 7.4 complete feed for fattening chicks, 1.5 weeks): 67.5%
Recovery rate of zinc bacitracin (ZBA) in % (pellet feed 7.4 complete feed for fattening chicks, 4 weeks): 40.2%
Recovery rate of zinc bacitracin (ZBA) in % (pellet feed 7.4 complete feed for fattening chicks, 6 weeks): 24.9%
Recovery rate of zinc bacitracin (ZBA) in % (pellet feed 7.4 complete feed for fattening chicks, 8 weeks): 21.4%
Recovery rate of zinc bacitracin (ZBA) in % (pellet feed 7.7 complete feed for laying hens, 1.5 weeks): 81.5%
Recovery rate of zinc bacitracin (ZBA) in % (pellet feed 7.7 complete feed for laying hens, 4 weeks): 65.8%
Recovery rate of zinc bacitracin (ZBA) in % (pellet feed 7.7 complete feed for laying hens, 6 weeks): 51.1%
Recovery rate of zinc bacitracin (ZBA) in % (pellet feed 7.7 complete feed for laying hens, 8 weeks): 42.4%
Substance: zinc bacitracin [Untreated control]
